In patent US4117230A, “Hydantoin derivatives as therapeutic agents” (priority 1977, dated 1978):

Experiments:
aldose reductase = target: T1, aldose reductase (Bos taurus, UniProt P16116); experiment: inhibition of aldose reductase enzyme activity (procedure of S. Hayman et al., modified by K. Sestanj et al.); type: biochemical, calf; details: calf lens enzyme, read-out: Percent inhibition of aldose reductase enzyme activity; for inhibition at 100 µM: 10^-4 M; for inhibition at 10 µM: 10^-5 M; for inhibition at 1 µM: 10^-6 M; for inhibition at 0.1 µM: 10^-7 M
T1 construct: partially purified aldose reductose enzyme obtained from calf lens; from tissue; host or cells: calf lens
Protocol: (§1) The activity of the compounds of the present invention, as agents for the control of chronic diabetic complications, is determined by their ability to successfully pass one or more of the following standard biological and/or pharmacological tests, viz., (1) measuring their ability to inhibit the enzyme activity of isolated aldose reductase; (2) measuring their ability to reduce or inhibit sorbitol accumulation in the sciatic nerve of acutely sterptozotocinized (i.e., diabetic) rats; (3) measuring their ability to reverse already-elevated sorbitol levels in the sciatic nerve and lens of chronic streptozotocin-induced diabetic rats; (4) measuring their ability to prevent or inhibit galactitol formation in the lens of acutely galactosemic rats, and (5) measuring their ability to delay cataract formation and reduce the severity of lens opacities in chronic galactosemic rats.
Hayman et al., as described in the Journal of Biological Chemistry, Vol. 240, p. […] In every case, the substrate employed ws partially purified aldose reductose enzyme obtained from calf lens.

[1] = system: sorbitol accumulation in the sciatic nerve of streptozotocinized (i.e., diabetic) rats; experiment: inhibition of sorbitol accumulation in the sciatic nerve of acutely streptozotocinized (diabetic) rats; type: in vivo, rat; details: measured at 27 h, vs untreated
Protocol: as §1
The following spiro-hydantoin compounds of Preparation C and Examples I-V, VII-IX, XI-XVII, XIX-XXV, XXVII and XXX-XXXIII, respectively, were tested for their ability to reduce or inhibit sorbitol accumulation in the sciatic nerve of streptozotocinized (i.e., diabetic) rats by the procedure essentially described in U.S. Pat. No. 3,821,383. In the present study, the amount of sorbitol accumulation in the sciatic nerves was measured 27 hours after induction of diabetes. The compounds were administered orally at the dose levels indicated at 4, 8 nd 24 hours following the administration of streptozotocin. The results obtained in this manner are presented below in terms of percent inhibition (%) afforded by the test compound as compared to the case where no compound was administered (i.e., the untreated animal where sorbitol levels normally rise from approximately […]. tissue to as high as […]. tissue in the 27-hour test period): […]

[2] = 5.0 mg./kg. orally at 4, 8 and 24 h after streptozotocin
[3] = 10 mg./kg. orally at 4, 8 and 24 h after streptozotocin
[4] = 2.5 mg./kg. orally at 4, 8 and 24 h after streptozotocin
[5] = 1.5 mg./kg. orally at 4, 8 and 24 h after streptozotocin

Row | inhibition at 100 µM (aldose reductase) [%] | inhibition at 10 µM (aldose reductase) [%] | inhibition at 1 µM (aldose reductase) [%] | inhibition at 0.1 µM (aldose reductase) [%] | Compound | Percent inhibition of sorbitol accumulation in the sciatic nerve [1, 2] [%] | Percent inhibition of sorbitol accumulation in the sciatic nerve [1, 3] [%] | Percent inhibition of sorbitol accumulation in the sciatic nerve [1, 4] [%] | Percent inhibition of sorbitol accumulation in the sciatic nerve ([1]; 0.75 mg./kg. orally at 4, 8 and 24 h after streptozotocin) [%] | Percent inhibition of sorbitol accumulation in the sciatic nerve [1, 5] [%]
1 | 97 | 61 | 17 | 1 | COc1ccc2c(c1)C1(CC2)NC(=O)NC1=O (stereo not drawn) [Ex. II, 6'-methoxy-spiro-[imidazolidine-4,1'-indan]-2,5-dione] | 6 | 54 |  |  | 
2 | 82 | 60 | 13 | -10 | COc1ccc2c(c1)CCC21NC(=O)NC1=O (stereo not drawn) [Ex. VI, 5'-methoxy-spiro-[imidazolidine-4,1'-indan]-2,5-dione] |  |  |  |  | 
3 | 76 | 60 | 18 | 7 | COc1ccc2c(c1)C1(CCS2)NC(=O)NC1=O (stereo not drawn) [Ex. VIII, 6'-methoxy-spiro-[imidazolidine-4,4'-thiochroman]-2,5-dione] | 26 |  |  |  | 
4 | 93 | 31 | 11 | -30 | O=C1NC(=O)C2(CCc3ccc(O)cc32)N1 (stereo not drawn) [Ex. XIX, 6'-hydroxy-spiro-[imidazolidine-4,1'indan]-2,5-dione] |  | 15 |  |  | 
5 | 54 |  | 23 |  | COc1ccc2c(c1)C1(CCC2)NC(=O)NC1=O (stereo not drawn) [Ex. XVI, 3',4'-dihydro-7'-methoxy-spiro[imidazolidine-4,1'(2'H)naphthalene]-2,5-dione] | 25 | 44 |  |  | 
6 | 72 | 38 | 15 | 7 | COc1ccc2c(c1)CCCC21NC(=O)NC1=O (stereo not drawn) [Ex. XVIII, 3',4'-dihydro-6'-methoxy-spiro[imidazolidine-4,1'(2'H)naphthalene]-2,5-dione] |  |  |  |  | 
7 | 100 | 92 | 35 | 7 | COc1ccc2c(c1)C1(CCO2)NC(=O)NC1=O (stereo not drawn) [Ex. XXI, 6-methoxy-spiro[chroman-4,4'-imidazolidine]-2',5'-dione] |  |  | 24 |  | 

Second part, the molecule before the results:

Row | Compound | inhibition at 100 µM (aldose reductase) [%] | inhibition at 10 µM (aldose reductase) [%] | inhibition at 1 µM (aldose reductase) [%] | inhibition at 0.1 µM (aldose reductase) [%] | Percent inhibition of sorbitol accumulation in the sciatic nerve [1, 2] [%] | Percent inhibition of sorbitol accumulation in the sciatic nerve [1, 3] [%] | Percent inhibition of sorbitol accumulation in the sciatic nerve [1, 4] [%] | Percent inhibition of sorbitol accumulation in the sciatic nerve ([1]; 0.75 mg./kg. orally at 4, 8 and 24 h after streptozotocin) [%] | Percent inhibition of sorbitol accumulation in the sciatic nerve [1, 5] [%]
8 | O=C1NC(=O)C2(CCc3ccc(F)cc32)N1 (stereo not drawn) [Ex. III, 6'-fluoro-spiro-[imidazolidine-4,1'-indan]-2,5-dione] | 74 | 12 | 22 | -1 | 45 |  |  |  | 
9 | COc1cc2c(cc1OC)C1(CC2)NC(=O)NC1=O (stereo not drawn) [Ex. IV, 5',6'-dimethoxy-spiro-[imidazolidine-4,1'-indan]-2,5-dione] | 90 | 81 | 35 | 9 | 33 | 49 |  |  | 
10 | O=C1NC(=O)C2(CCSc3ccc(Cl)cc32)N1 (stereo not drawn) [Ex. IX, 6'-chloro-spiro-[imidazolidine-4,4'-thiochroman]-2,5-dione] | 79 | 87 | 71 | 30 |  |  | 58 |  | 
11 | O=C1NC(=O)C2(CCc3cc4c(cc32)OCO4)N1 (stereo not drawn) [Ex. V, 5',6'-methylenedioxy-spiro-[imidazolidine-4,1'-indan]-2,5-dione] | 92 | 67 | 25 | 3 | 9 |  |  |  | 
12 | O=C1NC(=O)C2(CCSc3ccccc32)N1 (stereo not drawn) [Ex. VII, spiro-[imidazolidine-4,4'-thiochroman]-2,5-dione] | 92 | 64 | 10 | -5 | 39 | 65 |  |  | 
13 | O=C1NC(=O)C2(CCSc3ccc(Br)cc32)N1 (stereo not drawn) [Ex. X, 6-bromo-spiro-[imidazolidine-4,4'-thiochroman]-2,5-dione] | 32 |  |  |  |  |  |  |  | 
14 | O=C1NC(=O)C2(CCSc3ccc(F)cc32)N1 (stereo not drawn) [Ex. XII, 6'-fluoro-spiro-[imidazolidine-4,4'-thiochroman]-2,5-dione] | 81 | 77 | 66 | 38 |  |  | 74 | 13 | 45
15 | O=C1NC(=O)C2(CCSc3c(Cl)cccc32)N1 (stereo not drawn) [Ex. XIII, 8'-chloro-spiro-[imidazolidine-4,4'-thiochroman]-2,5-dione] | 60 |  |  |  |  |  |  |  | 5
16 | O=C1NC(=O)C2(CCSc3cc(Cl)ccc32)N1 (stereo not drawn) [Ex. XIV, 7'-chloro-spiro-[imidazolidine-4,4'-thiochroman]-2,5-dione] | 70 |  |  |  |  |  |  |  | 26
17 | O=C1NC(=O)C2(CCCc3ncccc32)N1 (stereo not drawn) [Ex. XV, 7',8'-dihydro-spiro[imidazolidine-4,5'(6H)-quinoline]-2,5-dione] | 83 | 54 | 9 | -2 | 5 | 52 |  |  | 
18 | COc1cc2c(cc1OC)C1(CCC2)NC(=O)NC1=O (stereo not drawn) [Ex. XVII, 3',4'-dihydro-6',7'-dimethoxy-spiro[imidazolidine-4,1'-(2H)naphthalene]-2,5-dione] | 82 | 26 | 8 | 16 |  |  |  |  | 
19 | O=C1NC(=O)C2(CCOc3ccccc32)N1 (stereo not drawn) [Ex. XX, spiro[chroman-4,4'-imidazolidine]-2',5'-dione] | 73 | 64 | -9 | -16 | 58 | 77 | 34 |  | 
20 | COc1cccc2c1CCCC21NC(=O)NC1=O (stereo not drawn) [Ex. XXVI, 3',4'-dihydro-5'-methoxy-spiro[imidazolidine-4,1'(2'H)-naphthalene]-2,5-dione] | 72 | 49 | 5 | 0 |  |  |  |  | 
21 | O=C1NC(=O)C2(CCOc3ccc(Br)cc32)N1 (stereo not drawn) [Ex. XXVIII, 6-bromo-spiro-[chroman-4,4'-imidazolidine]-2',5'-dione] | 74 |  |  |  |  |  |  |  | 
22 | O=C1NC(=O)C2(CCS(=O)(=O)c3ccccc32)N1 (stereo not drawn) [Ex. XXXII, spiro-[imidazolidine-4,4'-thiochroman]-2,5-dione-1',1'-dioxide] | 94 | 69 | 31 | 2 |  |  |  |  | 
23 | Cc1cc(C)c2c(c1)C1(CCO2)NC(=O)NC1=O (stereo not drawn) [Ex. XXXIV, 6,8-dimethyl-spiro-[chroman-4,4'-imidazolidine]-2',5'-dione] | 71 | 84 | 54 | 17 |  |  |  |  | 
